Source: patent US11857570B2, “Natural composition for use in gynecology” (Organicare LLC, priority 2017, dated 2024)

Legend:
[1] = tested on: transformed human vaginal epithelial cells (Episkin); assay: Cell survival test (MTT) with three-dimensional vaginal epithelium reconstructed in vitro; assay type: cell-based
Protocol: The potential skin irritation on the vaginal epithelium was evaluated in vitro by means of a cytotoxicity assay: cell survival test with three-dimensional vaginal epithelium reconstructed in vitro (MTT test). The three-dimensional cell model used in the test consists of 0.5 cm^2 diameter units of cultures of transformed human vaginal epithelial cells, maintained for 5 days in a chemically defined culture medium and in contact with air on inert polycarbonate filters. The model was purchased from Episkin® (Lyons, lot 16-HVE-015).
Sodium lauryl sulphate (SLS) dissolved at 0.5% by weight in a phosphate buffer (Euroclone) was used as a positive control. The phosphate buffer was used on its own as a negative control. Exposure took place for 1 and 6 hours at about 37° C., 5% CO2. At the end of exposure, the epithelium was washed with phosphate buffer. The epithelium was incubated for 3 h at 37° C. with a 1 mg/ml solution of MTT (3-[4,5-dimethylthiazol-2-yl]-2,5-diphenyltetrazoliumbromide).
The solution was subsequently removed and replaced with isopropanol, with […]
successive hours of incubation at room temperature. 2 aliquots of each epithelium were transferred into a 96-well plate for the absorbance reading, which was carried out at a wavelength of 570 nm with a Tecan Sunrise remote colorimeter, equipped with a plate reader.
Through the creation of a dose-response curve, the cytotoxicity data obtained with the MTT test (Table 5) make it possible to determine the theoretical value of ET50, that is, the time in minutes that induces a 50% reduction in cell viability in the epithelium compared to untreatedcells.

bacterial vaginosis = details: at 3 months; cited from earlier work

| Structure (SMILES) | % mean cell viability 1 h treatment ([1]; MTT, 1 h exposure, reconstructed human vaginal epithelium) [%] | % mean cell viability 6 h treatment ([1]; MTT, 6 h exposure, reconstructed human vaginal epithelium) [%] | ET50 ([1]; time that induces a 50% reduction in cell viability compared to untreated cells) [min] | risk of relapse (bacterial vaginosis) |
| --- | --- | --- | --- | --- |
| CCCCCCCCCCCCOS(=O)(=O)[O-].[Na+] [Positive control, Sodium lauryl sulphate] | 8.26 | 6.54 | 32.70 |  |
| Cc1ncc([N+](=O)[O-])n1CCO [metronidazole] |  |  |  | 33 % of women |
